Drawing on EP1437348A1, “6-methyl-2,4-diamino-pyrimidine derivatives, process for preparation, compositions containing them and their uses as basic neutralising agents” (L'OREAL, priority 2003, dated 2004), this text covers pKa and MIC for 18 molecules.

Values after ≈ are worked out from the molar mass of the structure shown. Like-named read-outs stand apart in the source and are kept apart here.

Data set [1] in a line: Ionisation constants by potentiometric titration. Type of data set: physicochemical. The conditions noted are these: read-out: pKa expérimental. On the procedure: Les constantes d'ionisation sont déterminées expérimentalement par titrage potentiométrique suivant les conditions opératoires décrites ci-dessous et évaluées par le logiciel de prédiction ACD/pK DB, Version 5.12.
Conditions opératoires du titrage potentiométrique • Matériel utilisé : (Radiometer-Tacussel) : • titrateur TIM 900 • passeur d'échantillons SAC 90 • logiciel Tim Talk 9 • - Prise d'essai : 10^-4 mole • - Mise en solution : (solubilisation avec passeur d'échantillons) • 5 ml du mélange DMSO 70 / Ethanol 10 / Eau 20 (agitation 3 minutes avec barbotage d'azote) • 10 ml d'une solution de NaCl 0.225M dans eau 80 / DMSO 20 (agitation 3 minutes avec barbotage d'azote) • - Méthode de titrage : • Etalonnage de l'électrode entre pH4 et pH10 • Titrage direct par NaOH 1N ou après ajout d'HCl 1N • Détection d'inflexion avec ajout continu du titrant • vitesse d'addition mini : 1%/min • vitesse d'addition maxi : 1%/min • Flux d'azote à la surface de la solution pendant le titrage • - Calculs : • 2 fonctions polynomiales sont utilisées pour obtenir le pKa dans l'eau en milieu NaCl 0.15M : • pour les fonctions acides : pKaH2O = -0,0208(pKasolvant)^2 + 1,257pKasolvant - 1,6 • pour les fonctions basiques :pKaH2O = -0,0208(pKasolvant)^2 + 1,257pKasolvant - 0,75

Data set [2] relates to Staphylococcus aureus. Briefly: Minimal inhibitory concentration (CMI), Alamar Blue broth method. In kind it is cell-based. The conditions noted are these: ATCC6538, ATCC #6538, lowest concentration with growth inhibition ≥ 90%, 16 h contact at 37°C, read-out: CMI S.aureus. An excerpt: (§1) La méthode de détermination de l'activité anti-microbienne des composés selon l'invention fait intervenir la mesure de la Concentration Minimale Inhibitrice (CMI) vis-à-vis de 2 bactéries gram- (E. coli et P. aeruginosa), d'une bactérie gram+ (S. aureus) et d'une levure (C. albicans). Cette méthode a été effectuée selon la méthode décrite dans les articles suivants: - Baker C.N., Banerjee S.N. and Tenover F.C. : Evaluation of Alamar colorimetric MIC Method for antimicrobial susceptibility testing of gram-negative bacteria. J. Clin. Microbiol. (1994), 32, 1261-1267; - Baker C.N. and Tenover F.C. : Evaluation of Alamar colorimetric broth microdilution susceptibility testing method for staphylococci and enterococci. J. Clin. Microbiol. (1996), 34, 2654-2659. Les souches bactériennes utilisées au départ sous forme de disques lyophilisés calibrés sont réhydratées en suivant les indications du fournisseur (Fisher Scientific S.A.)
(§2) Les souches sont ensemencées dans du milieu Trypto-caseine-soja. La mise en contact du composé à tester solubilisé dans l'eau, avec les souches en phase de croissance s'effectue en milieu liquide. Après 16 heures de contact du composé avec les bactéries (37°C), de l'Alamar Blue est ajouté comme indicateur métabolique de la viabilité de cellules variées et de bactéries. La réduction de l'indication est proportionnelle à l'activité métabolique des bactéries. A l'issue de l'incubation d'une durée de 2h (sauf pour C. albicans pour laquelle l'incubation est de 4h), l'activité métabolique des bactéries est évaluée par une lecture en absorbance ou en fluorescence. En fluorescence, les lectures sont réalisées à 544nm (Excitation) et à 590nm (Emission). Les composés les plus actifs sont sélectionnés et un effet dose (8 concentrations) est ensuite réalisé comme précédemment. La Concentration Minimale Inhibitrice (C.M.I.) a alors été déterminée comme étant la concentration la plus faible du composé testé pour laquelle était observée une inhibition de croissance de la bactérie ou de la levure ≥ 90%.
(Alamar Blue is a resazurin reagent that responds to reducing activity.)

Data set [3] relates to Pseudomonas aeruginosa. The description is as above. Type of data set: cell-based. The conditions noted are these: ATCC9027, ATCC #9027, lowest concentration with growth inhibition ≥ 90%, 16 h contact at 37°C, read-out: CMI P.aeruginosa.
From the text: as §1, §2

The test system of data set [4] is Candida albicans. Described as above. In kind it is cell-based. The conditions noted are these: ATCC10231, ATCC #10231, lowest concentration with growth inhibition ≥ 90%, 16 h contact at 37°C.
From the text: as §1, §2

The test system of data set [5] is Escherichia coli. The data set is described as above. In kind it is cell-based. The conditions noted are these: ATCC8739, ATCC #8739, lowest concentration with growth inhibition ≥ 90%, 16 h contact at 37°C, read-out: CMI E.coli.
From the text: as §1, §2

Setting [6] is: water, nacl 0.15m, dans l'eau, NaCl 0,15M, reference molecules entered in the database used for the prediction.

As to `Nc1ncccn1` [2-aminopyrimidine, reference compound], in data set [1] (setting [6]), the pKa is 3.9.
On to `Nc1ccncn1` [4-aminopyrimidine, reference compound], for which the pKa in data set [1] (setting [6]) was 6.
In the case of `Cc1cc(NCc2ccco2)nc(N)n1` [Comparatif (DE 3717480), reference compound], the MIC was 626 µg/mL (≈ 3.06 mM) in data set [2], more than 10000 µg/mL in data set [3], more than 10000 µg/mL in data set [4] and more than 10000 µg/mL in data set [5].
In the case of `Nc1nc(N2CCCCC2)cc(C(F)(F)F)n1` [Comparatif (DE 19917784), reference compound], the MIC in data set [2], in data set [3], in data set [4] and in data set [5] was more than 5000 µg/mL in each case.
In the case of `CO[Si](C)(C)CCCCNc1cc(C)nc(N)n1` [Composé A, 4-N-[4-(méthoxy-dimethylsilyl)-butyl]-6-methyl-pyrimidine - 2,4-diamine], the MIC in data set [2] turned out to be 78 µg/mL (≈ 0.291 mM); in data set [3], 156 µg/mL (≈ 0.581 mM); in data set [4] it was 156 µg/mL (≈ 0.581 mM); in data set [5], 78 µg/mL (≈ 0.291 mM).
Turning to `Cc1cc(NCC2CCNCC2)nc(N)n1` [Composé B, 4-N-[4-piperidinylmethyl]-6-methyl-pyrimidine-2,4-diamine], the MIC in data set [2] worked out at 2500 µg/mL (≈ 11.3 mM); in data set [3], 250 µg/mL (≈ 1.13 mM); in data set [4], 5000 µg/mL (≈ 22.6 mM); in data set [5] it was 1250 µg/mL (≈ 5.65 mM).
For `Cc1cc(NC[C@@H]2CCCN2)nc(N)n1` [Composé C], the MIC in data set [2] is 2500 µg/mL (≈ 12.1 mM); in data set [3], 5000 µg/mL (≈ 24.1 mM); in data set [4] it was 2500 µg/mL (≈ 12.1 mM); in data set [5], 5000 µg/mL (≈ 24.1 mM).
On to `Cc1cc(N2CCCN(CCCN3CCCC3)CC2)nc(N)n1` [Composé D, 4-methyl-6-[4-(3-pyrrolidin-1-yl-propyl)-[1,4]diazepan-1-yl]-pyrimidin-2-ylamine], for which the MIC is 5000 µg/mL (≈ 15.7 mM) in data set [2], more than 5000 µg/mL in data set [3] and 5000 µg/mL (≈ 15.7 mM) in data set [5].
In the case of `Cc1cc(N2CCc3cc(O)c(O)cc3C2)nc(N)n1` [Composé E, 2-(2-amino-6-methyl-pyrimidin-4-yl)-1,2,3,4-tetrahydro-isoquinoline-6,7-diol], the MIC in data set [2] is 1250 µg/mL (≈ 4.59 mM); in data set [3] it was 5000 µg/mL (≈ 18.4 mM); in data set [4] it was 1250 µg/mL (≈ 4.59 mM); in data set [5], 625 µg/mL (≈ 2.3 mM).
`Cc1cc(N2CCN(CCN(C)C)CC2)nc(N)n1` [Composé F, 4-[4-(2-dimethylamino-ethyl)-piperazin-1-yl]-6-methyl-pyrimidin-2-ylamine]: the MIC in data set [2] was 5000 µg/mL (≈ 18.9 mM); in data set [3], more than 5000 µg/mL; in data set [4], 5000 µg/mL (≈ 18.9 mM); in data set [5], 2500 µg/mL (≈ 9.46 mM).
For `Cc1cc(NCC(C)(C)N)nc(N)n1` [Composé G, N4-(2-amino-2-methyl-propyl)-6-methyl-pyrimidine-2,4-diamine], the MIC in data set [2] is 5000 µg/mL (≈ 25.6 mM); in data set [3] it was 2500 µg/mL (≈ 12.8 mM); in data set [4], 2500 µg/mL (≈ 12.8 mM); in data set [5], 2500 µg/mL (≈ 12.8 mM).
As to `Cc1cc(NCCN2CCNCC2)nc(N)n1` [Composé H, 4-N-(2-piperazin-1-yl-ethyl)-6-methyl-pyrimidine – 2,4-diamine], the MIC was 1250 µg/mL (≈ 5.29 mM) in data set [2], 5000 µg/mL (≈ 21.2 mM) in data set [3], 2500 µg/mL (≈ 10.6 mM) in data set [4] and 2500 µg/mL (≈ 10.6 mM) in data set [5].
With `Cc1cc(NCc2ccc(C)o2)nc(N)n1` [Composé I, 4-N-(5-methyl-furan-2-ylmethyl)---6-methyl-pyrimidine – 2,4-diamine], the MIC in data set [2] came out at 625 µg/mL (≈ 2.86 mM); in data set [3] it was 2500 µg/mL (≈ 11.5 mM); in data set [4] it was 625 µg/mL (≈ 2.86 mM); in data set [5], 1250 µg/mL (≈ 5.73 mM).
Consider `Cc1cc(N2CCN(C3CCN(C)CC3)CC2)nc(N)n1` [Composé J, 4-methyl-6-[4-(1-methyl-piperidin-4-yl)-piperazin-1-yl]-pyrimidin-2-ylamine], for which the MIC in data set [2] is 5000 µg/mL (≈ 17.2 mM); in data set [3], more than 5000 µg/mL; in data set [4], 5000 µg/mL (≈ 17.2 mM); in data set [5] it was 2500 µg/mL (≈ 8.61 mM).
In the case of `Cc1cc(N2CCN(c3ncccn3)CC2)nc(N)n1` [Composé K, 4-methyl-6-(4-pyrimidin-2-yl-piperazin-1-yl)-pyrimidin-2-ylamine], the MIC in data set [2] is 5000 µg/mL (≈ 18.4 mM); in data set [3], more than 5000 µg/mL; in data set [4] it was 625 µg/mL (≈ 2.3 mM); in data set [5], 2500 µg/mL (≈ 9.21 mM).
In the same order, the values of `Cc1cc(NCC2CCCC(CN)C2)nc(N)n1` (stereo not drawn) [Composé L, 4-N-(3-aminomethyl-cyclohexylmethyl)-6-methyl-pyrimidine-2,4-diamine] are 2500 µg/mL (≈ 10 mM), 2500 µg/mL (≈ 10 mM), 1250 µg/mL (≈ 5.01 mM) and 2500 µg/mL (≈ 10 mM).
On to `CCCCCCNc1cc(C)nc(N)n1` [Composé N, 4-N-Hexyl-6-methyl-pyrimidine-2,4-diamine], for which the pKa in data set [1] (function NH^+/N (pyrimidine motif), pKa in water, NaCl 0.15M, obtained from the solvent pKa by a polynomial function) amounted to 8.35. Further, the MIC in data set [2] worked out at 630 µg/mL (≈ 3.02 mM); in data set [3] it was 2500 µg/mL (≈ 12 mM); in data set [4], 160 µg/mL (≈ 0.768 mM); in data set [5], 310 µg/mL (≈ 1.49 mM).
As to `COc1cccc(Nc2cc(C)nc(N)n2)c1` [reference compound], the MIC was more than 5000 µg/mL in data set [2], more than 5000 µg/mL in data set [3], 1250 µg/mL (≈ 5.43 mM) in data set [4] and more than 5000 µg/mL in data set [5].

What is called pKa is the pH at which an ionisable group is half protonated.
